Measured values reported in US6897209B2, “Labelled factor XIIIa substrates” (GE Healthcare Limited, priority 1997, dated 2005).

Columns and labels:
human plasma clots [1] = biological target: T1, human plasma clots (Homo sapiens, UniProt P00488); assay: Incorporation into human plasma clots (in vitro plasma clot assay); type: biochemical
T1 construct: Factor XIII is transformed into its active form Factor XIIIa by thrombin in the presence of calcium ions; from tissue; host or cells: human plasma, clotted in vitro with thrombin and calcium chloride
T1 sequence (P00488 39-732): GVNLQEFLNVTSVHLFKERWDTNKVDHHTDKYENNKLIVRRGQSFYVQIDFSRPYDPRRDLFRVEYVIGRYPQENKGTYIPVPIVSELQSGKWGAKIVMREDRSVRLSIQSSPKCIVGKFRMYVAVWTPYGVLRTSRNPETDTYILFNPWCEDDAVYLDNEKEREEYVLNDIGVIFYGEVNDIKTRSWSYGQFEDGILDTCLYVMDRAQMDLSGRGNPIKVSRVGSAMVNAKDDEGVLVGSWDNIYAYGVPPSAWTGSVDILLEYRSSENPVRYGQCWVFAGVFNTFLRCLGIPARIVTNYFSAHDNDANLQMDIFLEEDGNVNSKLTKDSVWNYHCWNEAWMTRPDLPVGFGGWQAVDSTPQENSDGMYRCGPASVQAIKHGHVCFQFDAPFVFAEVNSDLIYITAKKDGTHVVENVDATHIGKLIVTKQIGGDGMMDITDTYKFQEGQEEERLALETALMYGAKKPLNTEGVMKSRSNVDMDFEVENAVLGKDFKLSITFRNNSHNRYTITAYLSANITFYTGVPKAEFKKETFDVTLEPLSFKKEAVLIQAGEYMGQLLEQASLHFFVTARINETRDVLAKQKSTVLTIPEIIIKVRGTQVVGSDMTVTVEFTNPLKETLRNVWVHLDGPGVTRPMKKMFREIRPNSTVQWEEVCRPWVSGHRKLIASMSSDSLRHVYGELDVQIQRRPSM

human plasma clots [2] = assay: as above; type: biochemical; conditions: control vials without thrombin and calcium chloride, 60 minutes
Factor XIIIa = biological target: T2, Factor XIIIa (Homo sapiens, UniProt P00488); assay: Factor XIIIa dependency of incorporation (dimethylcasein uptake, normal vs Factor XIII deficient plasma); type: biochemical; conditions: 1 KBq/ml, 60 minutes; uptake in normal plasma minus Factor XIII deficient plasma
T2 construct: Factor XIII is transformed into its active form Factor XIIIa by thrombin in the presence of calcium ions; from tissue; host or cells: human plasma
T2 sequence (P00488 39-732 limits assumed): T1 sequence (P00488 39-732)
Procedure: The assay was changed by replacing the mercaptoethanol with aprotinin at a final concentration of 2 μg/ml, and dimethylcasein (DMC) was used instead of casein.

[3] = Normal rat biodistribution; type: in vivo; conditions: i.v., male Wistar rats, Mean±SD n=3
Method in brief: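 Male Wistar rats (100–150 g) received radiolabelled tracer (8 MBq/ml, 0.1–0.2 ml) i.v. and were dissected mostly at 2, 15, 30, 60 and 240 min. Tissue uptake as % ID, mean±SD, n=3; urine and faeces excretion collected in metabolism cages.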

[4] = test system: clots induced in rat inferior vena cava; assay: Incorporation into clots induced in a rat model (rat inferior vena cava model); type: in vivo; conditions: rat IVC model
Method in brief: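 Male Wistar rats (250-350 g) were anaesthetised with 15% urethane, and compounds were injected 5 min after clot induction. Animals were killed at 60 min, and clots (about 27 mg) and tissues were weighed and counted. Uptake was given as cpm/g clot by dose/g animal and as clot-to-background ratios.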

[5] = compound injected 5 min post-induction, clot removed after 60 min

In the case of `CC(CNCc1ccccc1O)(CNCc1ccccc1O)CNC(=O)c1ccc(S(=O)(=O)NCCCCCN)cc1` [Compound 25, N,N′-bis-(2-hydroxybenzyl)-2-(4-N-(5-aminopentyl)amidosulphonyl)benzamidomethyl-2-methyl-propane-1,3-diamine], the “% specific uptake*” value (human plasma clots [1]; % retained with thrombin − % retained no thrombin) is reported as 12.9%, the “% retained in plasma clot assay (with thrombin)” value (human plasma clots [1]; human plasma with thrombin and calcium chloride, 60 minutes, ca. 20° C.) is reported as 15% and the “% retained in plasma clot assay (no thrombin)” value (human plasma clots [2]) is reported as 1.9%. For the same compound, the “% specific DMC casein uptake” value (Factor XIIIa) was 26%, the “% ID Blood” value ([3]; 2 min post-injection) was 23.0 ± 2.9 % ID and the “% ID GI Tract” value ([3]; 2 min post-injection) was 8.53 ± 0.66 % ID. For the same compound, the “% ID Heart” value ([3]; 2 min post-injection) was 0.74 + 0.1 % ID, the “% ID Kidney” value ([3]; 2 min post-injection) was 5.37 ± 1.3 % ID and the “% ID Liver” value ([3]; 2 min post-injection) was 13.6 ± 2.47 % ID. For the same compound, the “% ID Lung” value ([3]; 2 min post-injection) was 3.42 ± 0.39 % ID, the “% ID Muscle” value ([3]; 2 min post-injection) was 25.7 ± 2.0 % ID and the “% ID Urine” value ([3]; 2 min post-injection) was 0.11 ± 0.06 % ID. For the same compound, the “% ID Blood” value ([3]; 15 min post-injection) was 3.9 ± 0.17 % ID, the “% ID GI Tract” value ([3]; 15 min post-injection) was 45.68 ± 4.1 % ID and the “% ID Heart” value ([3]; 15 min post-injection) was 0.16 + 0.01 % ID. The “% ID Kidney” value ([3]; 15 min post-injection) was 7.13 ± 0.4 % ID, the “% ID Liver” value ([3]; 15 min post-injection) was 13.5 ± 0.14 % ID and the “% ID Lung” value ([3]; 15 min post-injection) was 1.37 ± 0.03 % ID. For the same compound, the “% ID Muscle” value ([3]; 15 min post-injection) was 8.93 ± 0.38 % ID, the “% ID Urine” value ([3]; 15 min post-injection) was 4.62 ± 2.9 % ID and the “% ID Blood” value ([3]; 30 min post-injection) was 2.12 ± 0.34 % ID. For the same compound, the “% ID GI Tract” value ([3]; 30 min post-injection) was 54.7 ± 2.09 % ID, the “% ID Heart” value ([3]; 30 min post-injection) was 0.1 + 0.03 % ID and the “% ID Kidney” value ([3]; 30 min post-injection) was 5.6 ± 0.1 % ID. The “% ID Liver” value ([3]; 30 min post-injection) was 9.66 ± 1.65 % ID, the “% ID Lung” value ([3]; 30 min post-injection) was 1.17 ± 0.01 % ID and the “% ID Muscle” value ([3]; 30 min post-injection) was 6.43 ± 0.41 % ID. The “% ID Urine” value ([3]; 30 min post-injection) was 11.6 ± 2.0 % ID, the “% ID Blood” value ([3]; 60 min post-injection) was 1.84 ± 0.19 % ID and the “% ID GI Tract” value ([3]; 60 min post-injection) was 55.87 ± 2.5 % ID. For the same compound, the “% ID Heart” value ([3]; 60 min post-injection) was 0.08 + 0.03 % ID, the “% ID Kidney” value ([3]; 60 min post-injection) was 4.24 ± 0.4 % ID and the “% ID Liver” value ([3]; 60 min post-injection) was 6.73 ± 0.48 % ID. For the same compound, the “% ID Lung” value ([3]; 60 min post-injection) was 0.96 ± 0.11 % ID, the “% ID Muscle” value ([3]; 60 min post-injection) was 4.95 ± 0.09 % ID and the “% ID Urine” value ([3]; 60 min post-injection) was 17.5 ± 1.7 % ID. For the same compound, the “% ID Blood” value ([3]; 240 min post-injection) was 0.62 ± 0.16 % ID, the “% ID GI Tract” value ([3]; 240 min post-injection) was 71.3 ± 0.7 % ID and the “% ID Heart” value ([3]; 240 min post-injection) was 0.02 + 0.01 % ID. The “% ID Kidney” value ([3]; 240 min post-injection) was 3.19 ± 0.1 % ID, the “% ID Liver” value ([3]; 240 min post-injection) was 3.97 ± 0.53 % ID and the “% ID Lung” value ([3]; 240 min post-injection) was 0.21 ± 0.05 % ID. The “% ID Muscle” value ([3]; 240 min post-injection) was 1.3 ± 0.38 % ID, the “% ID Urine” value ([3]; 240 min post-injection) was 16.81 ± 0.43 % ID and the Clot/Blood ([4]; 60 min) was 3.3. For the same compound, the Clot/Heart ([4]; 60 min) was 5, the Clot/Liver ([4]; 60 min) was 0.65 and the Clot/Lung ([4]; 60 min) was 1.5. The “% ID/g (clot uptake)” value [4, 5] was 0.29 ± 0.09 % ID/g and the “Relative conc (cpm/g of clot by dose/g animal)” value [4, 5] was 0.8 ± 0.2.
